Each structure is given as a SMILES string.

As a reminder, the IC50 is the concentration that inhibits the measured activity by half.

In one assay the test system is Hedgehog signalling pathway. Put plainly: Gli-reporter NIH3T3 luciferase assay (Hedgehog pathway inhibition). The format is cell-based. Conditions: NIH3T3; Gli-reporter NIH-3T3 cells, recombinant mouse sonic hedgehog, 24 hours, luminescence; read-out: Category (Hedgehog pathway inhibition activity, IC50). The essentials: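 Mouse NIH3T3 cells with Gli-responsive luciferase reporter, pre-treated 1 h with compound (top final concentration 1 μM, 0.1% DMSO) in 0.5% calf serum medium. Then stimulated with recombinant mouse sonic hedgehog for 24 h at 37° C. Luminescence read-out (OneGLO), triplicates; IC50 reported.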
For `Cn1nccc1-c1nnc(N2CCC(NC(=O)NC3CCCCC3)CC2)c2ccccc12` [Example 11, 1-cyclohexyl-3-[1-[4-(2-methylpyrazol-3-yl)phthalazin-1-yl]-4-piperidyl]urea], the IC50 was below 10 nM.
Still for that read-out and setting: as for `CC(C)c1ccccc1CN(C)C1CCN(c2nnc(-c3ccnn3C)c3ccccc23)CC1` [Example 29, N-[(2-isopropylphenyl)methyl]-N-methyl-1-[4-(2-methylpyrazol-3-yl)phthalazin-1-yl]piperidin-4-amine], the figure is 10 to 200 nM.
In the case of `Cn1nccc1-c1nnc(N2CCC(NCc3ccc(F)cc3)CC2)c2ccccc12` [Example 75, N-[(4-fluorophenyl)methyl]-1-[4-(2-methylpyrazol-3-yl)phthalazin-1-yl]piperidin-4-amine], the IC50 lay in the range of 200 to 2000 nM.
Same read-out and setting: as for `Cn1nccc1-c1nnc(N2CCC(NS(=O)(=O)c3ccc(F)cc3C(F)(F)F)CC2)c2ccccc12` [Example 50, 4-fluoro-N-[1-[4-(2-methylpyrazol-3-yl)phthalazin-1-yl]-4-piperidyl]-2-(trifluoromethyl)benzenesulfonamide], the figure is below 10 nM.
For `Cn1nccc1-c1nnc(N2CCC(NCc3ccccc3OC(F)(F)F)CC2)c2ccccc12` [Example 36, 1-[4-(2-methylpyrazol-3-yl)phthalazin-1-yl]-N-[[2-(trifluoromethoxy)phenyl]methyl]piperidin-4-amine], the 50% inhibitory concentration (IC50) was 10 to 200 nM.
Same read-out and setting: as for `CSc1ccccc1CN(C)C1CCN(c2nnc(-c3ccnn3C)c3ccccc23)CC1` [Example 28, N-methyl-1-[4-(2-methylpyrazol-3-yl)phthalazin-1-yl]-N-[(2-methylsulfanylphenyl)methyl]piperidin-4-amine], the figure is below 10 nM.
Turning to `CC(=O)N(Cc1ccc(F)cc1C(F)(F)F)C1CCN(c2nnc(-c3ccnn3C)c3ccccc23)CC1` [Example 77, N-[[4-fluoro-2-(trifluoromethyl)phenyl]methyl]-N-[1-[4-(2-methylpyrazol-3-yl)phthalazin-1-yl]-4-piperidyl]acetamide], the IC50 was 10 to 200 nM.
As for `Cn1nccc1-c1nnc(N2CCC(NCc3cccc(C(F)(F)F)c3)CC2)c2ccccc12` [Example 39, 1-[4-(2-methylpyrazol-3-yl)phthalazin-1-yl]-N-[[3-(trifluoromethyl)phenyl]methyl]piperidin-4-amine], the IC50 fell in the range of 10 to 200 nM.
For `Cc1c(-c2ccnn2C)nnc(N2CCC(N(C)Cc3ccc(F)cc3C(F)(F)F)CC2)c1C` [Example 41, 1-[4,5-dimethyl-6-(2-methylpyrazol-3-yl)pyridazin-3-yl]-N-[[4-fluoro-2-(trifluoromethyl)phenyl]methyl]-N-methyl-piperidin-4-amine], the concentration for half-maximal inhibition (IC50) was 10 to 200 nM.
For `CCOc1ccccc1CNC1CCN(c2nnc(-c3ccnn3C)c3ccccc23)CC1` [Example 52, N-[(2-ethoxyphenyl)methyl]-1-[4-(2-methylpyrazol-3-yl)phthalazin-1-yl]piperidin-4-amine], the IC50 fell in the range of 10 to 200 nM.
Regarding `CN(Cc1ccc(F)cc1C(F)(F)F)C1CCN(c2nnc(-c3ccnn3C)c3ccccc23)C1` (centres unmarked) [Example 55, N-[[4-fluoro-2-(trifluoromethyl)phenyl]methyl]-N-methyl-1-[4-(2-methylpyrazol-3-yl)phthalazin-1-yl]pyrrolidin-3-amine], the IC50 fell in the range of 10 to 200 nM.
For `Cn1nccc1-c1nnc(N2CCC(NCc3ccc(F)cc3C(F)(F)F)CC2)c2ccccc12` [Example 79, N-[[4-fluoro-2-(trifluoromethyl)phenyl]methyl]-1-[4-(2-methylpyrazol-3-yl)phthalazin-1-yl]piperidin-4-amine], the IC50 is below 10 nM.
Turning to `CN(C1CCN(c2nnc(-c3ccnn3C)c3ccccc23)CC1)S(=O)(=O)c1ccc(F)cc1C(F)(F)F` [Example 48, 4-fluoro-N-methyl-N-[1-[4-(2-methylpyrazol-3-yl)phthalazin-1-yl]-4-piperidyl]-2-(trifluoromethyl)benzenesulfonamide], the concentration for half-maximal inhibition (IC50) was below 10 nM.
Consider `CN(Cc1ccc(F)cc1C(F)(F)F)C1CCN(c2nnc(-c3ccnn3C)c3ccncc23)CC1` [Example 47, N-[[4-fluoro-2-(trifluoromethyl)phenyl]methyl]-N-methyl-1-[1-(2-methylpyrazol-3-yl)pyrido[3,4-d]pyridazin-4-yl]piperidin-4-amine], for which the concentration for half-maximal inhibition (IC50) was below 10 nM.
On the same count and under the same terms, the result for `CN(Cc1ccccc1OC(F)F)C1CCN(c2nnc(-c3ccnn3C)c3ccccc23)CC1` [Example 12, N-[[2-(difluoromethoxy)phenyl]methyl]-N-methyl-1-[4-(2-methylpyrazol-3-yl)phthalazin-1-yl]piperidin-4-amine] reads 10 to 200 nM.
For `Cn1nccc1-c1nnc(N2CCC(NC(=O)Nc3ccc(F)cc3F)CC2)c2ccccc12` [Example 8], the IC50 was below 10 nM.
As to `Cn1nccc1-c1nnc(N2CCC(NCc3ccc(C(F)(F)F)cc3)CC2)c2ccccc12` [Example 37, 1-[4-(2-methylpyrazol-3-yl)phthalazin-1-yl]-N-[[4-(trifluoromethyl)phenyl]methyl]piperidin-4-amine], the IC50 is 10 to 200 nM.

The same assay, now with this note: NIH3T3; Gli-reporter NIH-3T3 cells, recombinant mouse sonic hedgehog, 24 hours, luminescence; read-out: Gli Luc nM (IC50).
Turning to `Cn1nccc1-c1nnc(N2CCC(NS(=O)(=O)c3ccc(F)cc3C(F)(F)F)CC2)c2ccccc12` [Example 50, 4-fluoro-N-[1-[4-(2-methylpyrazol-3-yl)phthalazin-1-yl]-4-piperidyl]-2-(trifluoromethyl)benzenesulfonamide], the half-maximal inhibitory concentration (IC50) was 1.79 nM.
On to `Cn1nccc1-c1nnc(N2CCC(NCc3ccc(F)cc3C(F)(F)F)CC2)c2ccccc12` [Example 79, N-[[4-fluoro-2-(trifluoromethyl)phenyl]methyl]-1-[4-(2-methylpyrazol-3-yl)phthalazin-1-yl]piperidin-4-amine], for which the IC50 was determined as 7.85 nM.
On the same count and under the same terms, the result for `Cc1c(-c2ccnn2C)nnc(N2CCC(N(C)C(=O)Nc3ccc(F)cc3C(F)(F)F)CC2)c1C` [Example 151, 1-[1-[4,5-dimethyl-6-(2-methylpyrazol-3-yl)pyridazin-3-yl]-4-piperidyl]-3-[4-fluoro-2-(trifluoromethyl)phenyl]-1-methyl-urea] reads 5.12 nM; that for `Cn1nccc1-c1nnc(N2CCC(NC(=O)Nc3ccc(F)cc3F)CC2)c2ccccc12` [Example 8], 0.99 nM.

The same assay, now with this note: NIH3T3; Gli-reporter NIH-3T3 cells, recombinant mouse sonic hedgehog, 24 hours, luminescence; read-out: Gli luc IC50.
On to `Cn1nccc1-c1nnc(N2CCC(NS(=O)(=O)c3ccc(F)cc3C(F)(F)F)CC2)c2cnccc12` [Example 106, 4-fluoro-N-[1-[1-(2-methylpyrazol-3-yl)pyrido[3,4-d]pyridazin-4-yl]-4-piperidyl]-2-(trifluoromethyl)benzenesulfonamide], for which the half-inhibitory concentration (IC50) fell in the range of 10 to 200 nM.
Still for that read-out and setting: as for `Cc1c(-c2ccnn2C)nnc(N2CCC(NC(=O)Nc3ccc(F)cc3C(F)(F)F)CC2)c1C` [Example 100, 1-[1-[4,5-dimethyl-6-(2-methylpyrazol-3-yl)pyridazin-3-yl]-4-piperidyl]-3-[4-fluoro-2-(trifluoromethyl)phenyl]urea], the figure is 10 to 200 nM; as for `Cn1nccc1-c1nnc(N2CCC(NC(=O)Nc3ccc(F)cc3F)CC2)c2cnccc12` [Example 104, 1-(2,4-difluorophenyl)-3-[1-[1-(2-methylpyrazol-3-yl)pyrido[3,4-d]pyridazin-4-yl]-4-piperidyl]urea], 10 to 200 nM.
For the compound `COc1ccc(-c2nnc(N3CCC(NS(=O)(=O)c4ccc(F)cc4C(F)(F)F)CC3)c(C)c2C)cn1` [Example 117, 4-fluoro-N-[1-[6-(6-methoxy-3-pyridyl)-4,5-dimethyl-pyridazin-3-yl]-4-piperidyl]-2-(trifluoromethyl)benzenesulfonamide], the IC50 lay within 10 to 200 nM.
For the compound `Cn1nccc1-c1nnc(N2CCC(NCc3ccc(F)nc3C(F)(F)F)CC2)c2ccccc12` [Example 165, N-[[6-fluoro-2-(trifluoromethyl)-3-pyridyl]methyl]-1-[4-(2-methylpyrazol-3-yl)phthalazin-1-yl]piperidin-4-amine], the IC50 fell in the range of 10 to 200 nM.
As for `Cc1cc(-c2nnc(N3CCC(NCc4ccc(F)cc4C(F)(F)F)CC3)c(C)c2C)ccn1` [Example 122, 1-[4,5-dimethyl-6-(2-methyl-4-pyridyl)pyridazin-3-yl]-N-[[4-fluoro-2-(trifluoromethyl)phenyl]methyl]piperidin-4-amine], the IC50 is above 200 nM.
Turning to `Cc1c(-c2ccnn2C)nnc(N2CCC(N(C)C(=O)Nc3ccc(F)cc3F)CC2)c1C` [Example 127, 3-(2,4-difluorophenyl)-1-[1-[4,5-dimethyl-6-(2-methylpyrazol-3-yl)pyridazin-3-yl]-4-piperidyl]-1-methyl-urea], the IC50 is above 200 nM.
As to `CN(C(=O)Nc1ccc(F)cc1F)C1CCN(c2nnc(-c3ccnn3C)c3cccnc23)CC1` [Example 136, 3-(2,4-difluorophenyl)-1-methyl-1-[1-[5-(2-methylpyrazol-3-yl)pyrido[2,3-d]pyridazin-8-yl]-4-piperidyl]urea], the half-inhibitory concentration (IC50) lay in the range of 10 to 200 nM.
Take `Cc1c(-c2ccnn2C)nnc(N2CCC(N(C)C(=O)Nc3ccccc3F)CC2)c1C` [Example 126, 1-[1-[4,5-dimethyl-6-(2-methylpyrazol-3-yl)pyridazin-3-yl]-4-piperidyl]-3-(2-fluorophenyl)-1-methyl-urea]: the 50% inhibitory concentration (IC50) lay in the range of 10 to 200 nM.
Still for that read-out and setting: as for `Cn1nccc1-c1nnc(N2CCC(NCc3ccc(F)cc3C(F)(F)F)CC2)c2c1CCC2` [Example 148, N-[[4-fluoro-2-(trifluoromethyl)phenyl]methyl]-1-[1-(2-methylpyrazol-3-yl)-6,7-dihydro-5H-cyclopenta[d]pyridazin-4-yl]piperidin-4-amine], the figure is 10 to 200 nM; as for `Cc1c(-c2ccnn2C)nnc(N2CCC(N(C)Cc3ccccc3C(F)(F)F)CC2)c1C` [Example 84, 1-[4,5-dimethyl-6-(2-methylpyrazol-3-yl)pyridazin-3-yl]-N-methyl-N-[[2-(trifluoromethyl)phenyl]methyl]piperidin-4-amine], 10 to 200 nM; as for `Cc1c(-c2ccnn2C)nnc(N2CCC(N(C)C(=O)Nc3ccc(F)cc3C(F)(F)F)CC2)c1C` [Example 151, 1-[1-[4,5-dimethyl-6-(2-methylpyrazol-3-yl)pyridazin-3-yl]-4-piperidyl]-3-[4-fluoro-2-(trifluoromethyl)phenyl]-1-methyl-urea], below 10 nM.
Still for that read-out and setting: the result for `Cn1nccc1-c1nnc(N2CCC(NC(=O)Nc3ccc(F)cc3F)CC2)c2c1CCC2` [Example 138, 1-(2,4-difluorophenyl)-3-[1-[1-(2-methylpyrazol-3-yl)-6,7-dihydro-5H-cyclopenta[d]pyridazin-4-yl]-4-piperidyl]urea] reads 10 to 200 nM; that for `Cc1cc(-c2nnc(N3CCC(NS(=O)(=O)c4ccc(F)cc4C(F)(F)F)CC3)c(C)c2C)ccn1` [Example 118, N-[1-[4,5-dimethyl-6-(2-methyl-4-pyridyl)pyridazin-3-yl]-4-piperidyl]-4-fluoro-2-(trifluoromethyl)benzenesulfonamide], above 200 nM.

The record behind these values is patent US9579319B2 (Redx Pharma PLC, priority 2013, dated 2017).
